Measured values from ChEMBL document CHEMBL3797047, “Discovery of indirubin derivatives as new class of DRAK2 inhibitors from high throughput screening” (Bioorg Med Chem Lett, 2016).

What was measured:
[1] = target: T1, Serine/threonine-protein kinase 17B (Homo sapiens, UniProt O94768); assay: Inhibition of DRAK2 (unknown origin) using MRLC3 peptide as substrate incubated for 2 hrs by ADP-Glo kinase assay
T1 sequence (O94768 whole entry): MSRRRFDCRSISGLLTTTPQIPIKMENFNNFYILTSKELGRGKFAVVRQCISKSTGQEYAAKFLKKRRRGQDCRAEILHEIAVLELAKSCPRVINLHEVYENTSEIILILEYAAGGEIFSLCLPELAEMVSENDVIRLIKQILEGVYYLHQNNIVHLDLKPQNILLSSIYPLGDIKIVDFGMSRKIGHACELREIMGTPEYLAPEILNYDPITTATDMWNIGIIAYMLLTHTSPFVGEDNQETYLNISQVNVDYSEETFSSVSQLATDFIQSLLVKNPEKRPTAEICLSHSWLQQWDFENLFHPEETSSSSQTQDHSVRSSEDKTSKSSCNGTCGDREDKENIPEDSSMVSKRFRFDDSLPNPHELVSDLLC

[2] = target: T2, Serine/threonine-protein kinase 17A (Homo sapiens, UniProt Q9UEE5); assay: Inhibition of DRAK1 (unknown origin)
T2 sequence (Q9UEE5 whole entry): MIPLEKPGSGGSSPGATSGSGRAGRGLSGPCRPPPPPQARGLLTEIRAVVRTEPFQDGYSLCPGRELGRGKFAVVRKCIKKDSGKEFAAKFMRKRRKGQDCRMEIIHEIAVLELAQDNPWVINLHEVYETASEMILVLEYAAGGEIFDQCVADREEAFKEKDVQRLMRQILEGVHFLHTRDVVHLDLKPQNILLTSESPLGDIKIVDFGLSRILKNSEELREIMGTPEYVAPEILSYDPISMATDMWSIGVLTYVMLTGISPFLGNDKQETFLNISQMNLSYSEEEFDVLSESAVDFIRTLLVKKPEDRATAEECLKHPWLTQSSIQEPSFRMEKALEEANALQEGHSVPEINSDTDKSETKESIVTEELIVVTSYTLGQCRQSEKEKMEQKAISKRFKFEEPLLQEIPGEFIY

[3] = target: Death-associated protein kinase 1 (Homo sapiens, UniProt P53355); assay: Inhibition of DAPK1 (unknown origin)
[4] = target: Death-associated protein kinase 2 (Homo sapiens, UniProt Q9UIK4); assay: Inhibition of DAPK2 (unknown origin)
[5] = target: Death-associated protein kinase 3 (Homo sapiens, UniProt O43293); assay: Inhibition of DAPK3 (unknown origin)
Sequence of Death-associated protein kinase 3 (O43293 whole entry): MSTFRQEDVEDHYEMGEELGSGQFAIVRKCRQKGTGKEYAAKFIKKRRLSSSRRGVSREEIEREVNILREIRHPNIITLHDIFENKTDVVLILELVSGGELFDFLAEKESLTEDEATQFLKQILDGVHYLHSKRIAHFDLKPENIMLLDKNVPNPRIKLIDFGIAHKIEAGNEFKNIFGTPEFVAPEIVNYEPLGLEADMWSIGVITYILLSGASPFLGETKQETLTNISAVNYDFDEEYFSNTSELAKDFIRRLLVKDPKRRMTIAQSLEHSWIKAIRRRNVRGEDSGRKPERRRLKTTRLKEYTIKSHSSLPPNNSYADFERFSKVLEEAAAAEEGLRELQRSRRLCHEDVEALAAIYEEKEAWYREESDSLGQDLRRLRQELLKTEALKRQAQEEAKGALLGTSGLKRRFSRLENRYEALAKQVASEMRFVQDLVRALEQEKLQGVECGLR

[6] = target: Maternal embryonic leucine zipper kinase (Homo sapiens, UniProt Q14680); assay: Inhibition of MELK (unknown origin) using peptide substrate incubated for 30 mins by europium donor dye-based plate reader analysis
Sequence of Maternal embryonic leucine zipper kinase (Q14680 whole entry): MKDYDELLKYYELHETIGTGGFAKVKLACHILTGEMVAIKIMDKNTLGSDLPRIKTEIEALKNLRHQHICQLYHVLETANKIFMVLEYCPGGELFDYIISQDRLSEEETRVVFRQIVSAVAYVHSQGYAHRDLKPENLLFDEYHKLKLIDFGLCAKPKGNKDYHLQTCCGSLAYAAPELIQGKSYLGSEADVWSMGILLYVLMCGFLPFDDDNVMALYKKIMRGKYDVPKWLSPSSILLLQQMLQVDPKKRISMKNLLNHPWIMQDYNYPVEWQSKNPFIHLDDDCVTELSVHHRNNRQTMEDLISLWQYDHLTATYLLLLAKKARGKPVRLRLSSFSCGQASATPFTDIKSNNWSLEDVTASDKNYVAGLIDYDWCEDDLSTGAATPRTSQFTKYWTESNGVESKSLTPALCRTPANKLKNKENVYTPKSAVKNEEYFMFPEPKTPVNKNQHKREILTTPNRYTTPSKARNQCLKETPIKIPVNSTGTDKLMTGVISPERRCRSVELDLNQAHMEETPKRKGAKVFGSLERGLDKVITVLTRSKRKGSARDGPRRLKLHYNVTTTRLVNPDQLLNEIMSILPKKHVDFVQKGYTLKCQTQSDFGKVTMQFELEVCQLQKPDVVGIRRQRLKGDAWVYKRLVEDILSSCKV

[7] = target: T3, Epidermal growth factor receptor (Homo sapiens, UniProt P00533); assay: Inhibition of EGFR (unknown origin) using peptide substrate incubated for 30 mins by europium donor dye-based plate reader analysis
Target sequence in this assay (P00533 whole entry): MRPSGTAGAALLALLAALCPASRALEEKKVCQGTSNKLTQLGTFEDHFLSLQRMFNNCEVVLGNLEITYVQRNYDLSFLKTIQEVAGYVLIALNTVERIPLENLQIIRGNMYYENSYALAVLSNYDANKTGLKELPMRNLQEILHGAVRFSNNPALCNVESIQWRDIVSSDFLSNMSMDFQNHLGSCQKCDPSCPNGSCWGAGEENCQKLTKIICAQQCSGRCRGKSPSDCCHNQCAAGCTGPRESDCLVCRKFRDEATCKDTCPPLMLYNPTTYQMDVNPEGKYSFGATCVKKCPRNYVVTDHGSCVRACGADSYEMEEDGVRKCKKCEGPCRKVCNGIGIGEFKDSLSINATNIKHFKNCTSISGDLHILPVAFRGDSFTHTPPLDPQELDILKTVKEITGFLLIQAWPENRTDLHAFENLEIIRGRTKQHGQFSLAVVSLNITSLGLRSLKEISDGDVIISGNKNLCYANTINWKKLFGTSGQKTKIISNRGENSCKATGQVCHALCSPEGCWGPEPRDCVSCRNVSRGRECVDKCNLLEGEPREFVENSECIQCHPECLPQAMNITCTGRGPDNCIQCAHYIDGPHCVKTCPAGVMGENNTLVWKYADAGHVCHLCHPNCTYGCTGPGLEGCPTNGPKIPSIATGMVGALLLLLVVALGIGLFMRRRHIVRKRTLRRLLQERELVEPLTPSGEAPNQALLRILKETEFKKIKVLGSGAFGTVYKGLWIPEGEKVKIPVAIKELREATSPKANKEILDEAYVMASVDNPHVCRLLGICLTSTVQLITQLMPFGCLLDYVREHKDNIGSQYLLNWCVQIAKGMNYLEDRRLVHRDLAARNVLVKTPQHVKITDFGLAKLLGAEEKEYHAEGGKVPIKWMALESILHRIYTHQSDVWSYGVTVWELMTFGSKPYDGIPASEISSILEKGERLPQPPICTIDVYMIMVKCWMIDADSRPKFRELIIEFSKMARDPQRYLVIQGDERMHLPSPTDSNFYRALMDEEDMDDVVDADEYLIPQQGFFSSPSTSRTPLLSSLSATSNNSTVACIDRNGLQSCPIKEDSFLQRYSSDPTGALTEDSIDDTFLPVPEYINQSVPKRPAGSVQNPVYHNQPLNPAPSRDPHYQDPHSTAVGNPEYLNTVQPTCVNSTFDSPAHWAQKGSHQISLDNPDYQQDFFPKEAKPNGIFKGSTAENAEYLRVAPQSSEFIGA

[8] = target: Hepatocyte growth factor receptor (Homo sapiens, UniProt P08581); assay: Inhibition of c-MET (unknown origin) using peptide substrate incubated for 30 mins by europium donor dye-based plate reader analysis
[9] = target: T3, Epidermal growth factor receptor; assay: Inhibition of EGFR (746 to 750) deletion mutant (unknown origin) using peptide substrate incubated for 30 mins by europium donor dye-based plate reader analysis; format: protein assay
Insulin receptor = Insulin receptor (Homo sapiens, UniProt P06213); assay: Inhibition of IRK (unknown origin) using peptide substrate incubated for 30 mins by europium donor dye-based plate reader analysis
[10] = target: T1, Serine/threonine-protein kinase 17B; assay: Competitive inhibition of DRAK2 (unknown origin) using MRLC3 peptide as substrate incubated for 2 hrs by Lineweaver-Burk plot analysis in presence of ATP
Activated CDC42 kinase 1 = Activated CDC42 kinase 1 (Homo sapiens, UniProt Q07912); assay: Inhibition of AcK1 (unknown origin) using peptide substrate incubated for 30 mins by europium donor dye-based plate reader analysis
Sequence of Activated CDC42 kinase 1 (Q07912 whole entry): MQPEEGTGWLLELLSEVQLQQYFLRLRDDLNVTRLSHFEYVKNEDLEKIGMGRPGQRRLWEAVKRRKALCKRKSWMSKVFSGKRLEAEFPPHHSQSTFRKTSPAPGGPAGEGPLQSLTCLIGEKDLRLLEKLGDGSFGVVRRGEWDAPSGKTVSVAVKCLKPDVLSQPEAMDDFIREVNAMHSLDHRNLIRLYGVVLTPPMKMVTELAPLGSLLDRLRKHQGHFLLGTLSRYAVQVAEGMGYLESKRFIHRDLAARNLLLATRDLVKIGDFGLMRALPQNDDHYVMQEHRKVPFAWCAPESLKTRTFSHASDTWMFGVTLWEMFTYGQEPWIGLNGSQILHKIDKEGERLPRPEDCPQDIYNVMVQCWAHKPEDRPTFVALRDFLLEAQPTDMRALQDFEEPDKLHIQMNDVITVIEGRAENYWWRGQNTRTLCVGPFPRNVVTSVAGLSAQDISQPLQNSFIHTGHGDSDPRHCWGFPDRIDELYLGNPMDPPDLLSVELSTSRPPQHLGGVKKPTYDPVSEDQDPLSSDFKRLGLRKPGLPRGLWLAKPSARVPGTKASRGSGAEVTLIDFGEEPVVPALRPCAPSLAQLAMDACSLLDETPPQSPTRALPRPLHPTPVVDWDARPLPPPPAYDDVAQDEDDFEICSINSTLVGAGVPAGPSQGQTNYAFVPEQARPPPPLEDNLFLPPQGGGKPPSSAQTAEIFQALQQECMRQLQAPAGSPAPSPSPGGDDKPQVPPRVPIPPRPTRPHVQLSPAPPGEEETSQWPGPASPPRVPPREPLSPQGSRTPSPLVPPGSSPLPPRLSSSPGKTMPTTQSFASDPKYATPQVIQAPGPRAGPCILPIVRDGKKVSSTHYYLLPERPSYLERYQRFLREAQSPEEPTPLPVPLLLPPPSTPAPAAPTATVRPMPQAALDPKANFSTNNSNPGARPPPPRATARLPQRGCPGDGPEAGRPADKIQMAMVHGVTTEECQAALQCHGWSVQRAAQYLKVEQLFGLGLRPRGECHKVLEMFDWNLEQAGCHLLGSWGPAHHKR

[11] = target: ALK tyrosine kinase receptor (Homo sapiens, UniProt Q9UM73); assay: Inhibition of ALK (unknown origin) using peptide substrate incubated for 30 mins by europium donor dye-based plate reader analysis
Sequence of ALK tyrosine kinase receptor (Q9UM73 whole entry): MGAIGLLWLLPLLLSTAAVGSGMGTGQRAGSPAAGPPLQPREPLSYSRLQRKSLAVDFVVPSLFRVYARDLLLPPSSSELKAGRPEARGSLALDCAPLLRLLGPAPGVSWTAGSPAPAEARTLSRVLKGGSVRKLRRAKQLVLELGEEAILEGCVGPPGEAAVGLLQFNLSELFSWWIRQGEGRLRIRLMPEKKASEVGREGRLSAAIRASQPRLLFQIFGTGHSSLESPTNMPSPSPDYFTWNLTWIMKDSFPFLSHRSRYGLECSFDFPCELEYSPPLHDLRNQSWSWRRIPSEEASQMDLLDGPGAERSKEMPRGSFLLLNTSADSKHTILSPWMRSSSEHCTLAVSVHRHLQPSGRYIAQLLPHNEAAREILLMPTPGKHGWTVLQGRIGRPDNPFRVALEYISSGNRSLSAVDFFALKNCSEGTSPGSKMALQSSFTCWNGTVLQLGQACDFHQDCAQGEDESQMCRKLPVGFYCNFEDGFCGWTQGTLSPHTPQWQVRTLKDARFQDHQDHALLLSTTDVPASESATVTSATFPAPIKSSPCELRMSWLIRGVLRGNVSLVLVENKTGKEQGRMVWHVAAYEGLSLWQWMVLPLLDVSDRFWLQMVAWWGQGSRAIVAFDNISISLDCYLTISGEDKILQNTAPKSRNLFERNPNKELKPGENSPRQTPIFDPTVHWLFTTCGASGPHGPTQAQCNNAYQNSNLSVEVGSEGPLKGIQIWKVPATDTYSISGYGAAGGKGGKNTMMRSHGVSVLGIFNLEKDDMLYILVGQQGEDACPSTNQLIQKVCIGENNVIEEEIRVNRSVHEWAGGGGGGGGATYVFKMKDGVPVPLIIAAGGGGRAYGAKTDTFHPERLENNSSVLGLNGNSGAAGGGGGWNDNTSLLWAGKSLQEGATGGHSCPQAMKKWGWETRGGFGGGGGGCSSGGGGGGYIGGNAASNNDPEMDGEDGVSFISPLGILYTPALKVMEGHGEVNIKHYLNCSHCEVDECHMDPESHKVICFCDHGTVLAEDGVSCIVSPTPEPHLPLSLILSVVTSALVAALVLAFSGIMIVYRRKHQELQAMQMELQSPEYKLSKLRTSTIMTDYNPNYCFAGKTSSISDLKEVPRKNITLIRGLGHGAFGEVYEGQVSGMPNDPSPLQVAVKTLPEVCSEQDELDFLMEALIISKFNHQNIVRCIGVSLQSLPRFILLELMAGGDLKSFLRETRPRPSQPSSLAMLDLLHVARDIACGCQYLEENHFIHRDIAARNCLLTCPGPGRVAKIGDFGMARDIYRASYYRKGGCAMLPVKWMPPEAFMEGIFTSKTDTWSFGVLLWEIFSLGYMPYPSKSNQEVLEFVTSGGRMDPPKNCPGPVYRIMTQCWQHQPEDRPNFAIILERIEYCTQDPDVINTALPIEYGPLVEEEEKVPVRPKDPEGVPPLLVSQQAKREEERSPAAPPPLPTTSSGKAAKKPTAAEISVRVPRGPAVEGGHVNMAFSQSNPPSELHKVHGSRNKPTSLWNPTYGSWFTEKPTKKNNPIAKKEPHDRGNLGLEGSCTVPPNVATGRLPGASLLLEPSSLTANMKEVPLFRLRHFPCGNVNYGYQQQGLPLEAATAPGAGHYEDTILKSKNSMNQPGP

Row | IC50 [1] | IC50 [2] | SMILES | other results
1 | 120 nM | 320 nM | O=C1Nc2ccc(NC(=O)c3ccccc3C(F)(F)F)cc2/C1=C1/Nc2ccccc2/C1=N\O | 
2 | > 10000 nM |  | O=C1Nc2ccc(F)cc2/C1=C1/Nc2ccccc2C1=O | 
3 | 8 nM | 21 nM | O=C1Nc2ccc(NC(=O)C3CC3)cc2/C1=C1/Nc2ccccc2/C1=N\O | IC50 [3]: 140 nM; IC50 [4]: 170 nM; IC50 [5]: 140 nM
4 | 330 nM | 360 nM | COc1ccc(C(=O)Nc2ccc3c(c2)/C(=C2/Nc4ccccc4/C2=N\O)C(=O)N3)cc1 | 
5 | 14 nM | 120 nM | CC(C)=CC(=O)Nc1ccc2c(c1)/C(=C1/Nc3ccccc3/C1=N\O)C(=O)N2 | IC50 [3]: 450 nM; IC50 [4]: 570 nM; IC50 [5]: 450 nM
6 | > 10000 nM |  | O=C1Nc2ccc([N+](=O)[O-])cc2/C1=C1/Nc2cccc(Br)c2C1=O | 
7 | 14 nM | 24 nM | CC(C)(C)CC(=O)Nc1ccc2c(c1)/C(=C1/Nc3ccccc3/C1=N\O)C(=O)N2 | IC50 [3]: > 10000 nM; IC50 [4]: > 10000 nM; IC50 [5]: > 10000 nM
8 | > 10000 nM |  | O=C1Nc2ccccc2/C1=C1/Nc2cccc(Br)c2C1=O | 
9 | 1300 nM | 1300 nM | Cc1ccc(C(=O)Nc2ccc3c(c2)/C(=C2/Nc4ccccc4/C2=N\O)C(=O)N3)cc1 | 
10 | 3 nM | 51 nM | CCCCC(=O)Nc1ccc2c(c1)/C(=C1/Nc3ccccc3/C1=N\O)C(=O)N2 | IC50 [6]: > 10000 nM; IC50 [7]: > 10000 nM; IC50 [8]: > 10000 nM; IC50 [9]: > 10000 nM; IC50 [3]: 1800 nM; IC50 (Insulin receptor): > 10000 nM; Ki [10]: 0.26 nM; IC50 (Activated CDC42 kinase 1): > 10000 nM; IC50 [11]: > 10000 nM; IC50 [4]: 2300 nM; IC50 [5]: 1800 nM
11 | 21 nM | 32 nM | CC(C)(C)C(=O)Nc1ccc2c(c1)/C(=C1/Nc3ccccc3/C1=N\O)C(=O)N2 | IC50 [6]: 2800 nM; IC50 [7]: > 10000 nM; IC50 [8]: > 10000 nM; IC50 [9]: > 10000 nM; IC50 [3]: 700 nM; IC50 (Insulin receptor): > 10000 nM; IC50 (Activated CDC42 kinase 1): > 10000 nM; IC50 [11]: > 10000 nM; IC50 [4]: 830 nM; IC50 [5]: 700 nM
12 | 10 nM | 12 nM | CCCC(=O)Nc1ccc2c(c1)/C(=C1/Nc3ccccc3/C1=N\O)C(=O)N2 | IC50 [6]: 1000 nM; IC50 [7]: > 10000 nM; IC50 [8]: > 10000 nM; IC50 [9]: 8000 nM; IC50 [3]: 510 nM; IC50 (Insulin receptor): > 10000 nM; IC50 (Activated CDC42 kinase 1): > 10000 nM; IC50 [11]: > 10000 nM; IC50 [4]: 590 nM; IC50 [5]: 510 nM
13 | 77 nM | 24 nM | O=C1Nc2ccc(NC(=O)c3cc([N+](=O)[O-])cc([N+](=O)[O-])c3)cc2/C1=C1/Nc2ccccc2/C1=N\O | 
14 | 700 nM | 1100 nM | O=C(/C=C/c1ccccc1)Nc1ccc2c(c1)/C(=C1/Nc3ccccc3/C1=N\O)C(=O)N2 | 
15 | 290 nM | 250 nM | O=C1Nc2ccc(NC(=O)c3ccccc3F)cc2/C1=C1/Nc2ccccc2/C1=N\O | 
16 | > 10000 nM |  | Cc1cc(Cl)cc2c1NC(=O)/C2=C1\Nc2ccccc2\C1=N/O | 
17 | 1200 nM | 780 nM | O=C1Nc2ccc(NC(=O)c3ccc(F)cc3)cc2/C1=C1/Nc2ccccc2/C1=N\O | 

Row | IC50 [1] | IC50 [2] | SMILES | other results
18 | 1500 nM | 700 nM | O=C1Nc2ccc(NC(=O)c3cccc4ccccc34)cc2/C1=C1/Nc2ccccc2/C1=N\O | 
19 | > 10000 nM |  | O=C1Nc2ccc(Cl)cc2/C1=C1/Nc2ccccc2C1=O | 
20 | 950 nM | 460 nM | O=C(COc1cccc(Cl)c1)Nc1ccc2c(c1)/C(=C1/Nc3ccccc3/C1=N\O)C(=O)N2 | 
21 | > 10000 nM |  | Cc1cc(Cl)cc2c1NC(=O)/C2=C1\Nc2ccccc2C1=O | 
22 | 1400 nM |  | Nc1ccc2c(c1)/C(=C1/Nc3ccccc3C1=O)C(=O)N2 | 
23 | 3200 nM | 3000 nM | O=C1Nc2ccc(NC(=O)c3ccc(Cl)cc3)cc2/C1=C1/Nc2ccccc2/C1=N\O | 
24 | 6200 nM |  | O=C1Nc2ccc(I)cc2/C1=C1/Nc2ccccc2C1=O | 
25 | 200 nM | 360 nM | O=C1Nc2ccc(NC(=O)c3ccccc3)cc2/C1=C1/Nc2ccccc2/C1=N\O | 
26 | 710 nM |  | O=C1Nc2ccccc2/C1=C1/Nc2ccccc2/C1=N\O | 
27 | 620 nM |  | O=C1Nc2ccc(F)cc2/C1=C1/Nc2ccccc2/C1=N\O | 
28 | 120 nM | 110 nM | O=C1Nc2ccc(NC(=O)C3CCCCC3)cc2/C1=C1/Nc2ccccc2/C1=N\O | 
29 | > 10000 nM |  | O=C1Nc2ccccc2/C1=C1/Nc2ccccc2C1=O [INDIRUBIN] | 
30 | 250 nM |  | Nc1ccc2c(c1)/C(=C1/Nc3ccccc3/C1=N\O)C(=O)N2 | 
31 | > 10000 nM |  | Cc1ccc2c(c1)/C(=C1/Nc3ccccc3C1=O)C(=O)N2 | 
32 | 1300 nM | 500 nM | O=C1Nc2ccc(NC(=O)c3ccc([N+](=O)[O-])cc3)cc2/C1=C1/Nc2ccccc2/C1=N\O | 
33 | > 10000 nM |  | Cc1cc(C)c2c(c1)/C(=C1/Nc3ccccc3C1=O)C(=O)N2 | 
